The source of these data is paper PMC3639647, “Cloning, Expression, and Purification of Nucleoside Diphosphate Kinase from Acinetobacter baumannii” (Enzyme Research, 2013).

Molecules are shown by their SMILES.

The experiment addresses T1, Ndk (nucleoside diphosphate kinase) (Acinetobacter baumannii, UniProt B0VKS3).
T1 construct: E. coli BL21(DE3), Ni-NTA
T1 sequence (B0VKS3 1-143): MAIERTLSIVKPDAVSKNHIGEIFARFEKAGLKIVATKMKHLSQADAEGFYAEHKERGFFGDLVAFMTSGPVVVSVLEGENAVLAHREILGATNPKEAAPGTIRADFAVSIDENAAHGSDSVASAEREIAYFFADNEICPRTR
Nature of the experiment: intrinsic tryptophan/tyrosine fluorescence quenching titration (excitation […] nm). In kind it is binding. The settings on record: pH 7 (neutral), 25 °C, 17 µM protein, ATP 20-100 µM.

For the molecule `Nc1ncnc2c1ncn2[C@@H]1O[C@H](COP(=O)(O)OP(=O)(O)OP(=O)(O)O)[C@@H](O)[C@H]1O` [ATP], the “intrinsic tryptophan/tyrosine fluorescence quenching titration (excitation 280 n)” value is “Binding of the substrate ATP with the enzyme was confirmed by the quenching of fluorescence”.
